Measured values from PubChem BioAssay (NCI).
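In this assay, cells in 96-well plates receive the compound at five concentrations for 48 hours. Endpoints are linearly interpolated between the surrounding concentrations. Abbreviation: GI50, concentration required for 50% inhibition of growth. The concentration for full growth arrest is given as TGI.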

Experiments:
Assay in all cases: DTP human tumour cell line panel, 48 h
DU-145 prostate = tested on: DU-145 prostate
HCT-15 colon = tested on: HCT-15 colon
TK-10 renal = tested on: TK-10 renal
MCF7 breast = tested on: MCF7 breast
COLO 205 colon = tested on: COLO 205 colon
HS 578T breast = tested on: HS 578T breast
HOP-62 NSCLC = tested on: HOP-62 NSCLC
HCT-116 colon = tested on: HCT-116 colon
SN12C renal = tested on: SN12C renal
OVCAR-4 ovarian = tested on: OVCAR-4 ovarian

Compound	GI50 (DU-145 prostate) [µM]	TGI (DU-145 prostate) [µM]	GI50 (HCT-15 colon) [µM]	TGI (HCT-15 colon) [µM]	GI50 (TK-10 renal) [µM]	TGI (TK-10 renal) [µM]	GI50 (MCF7 breast) [nM]	TGI (MCF7 breast) [µM]	GI50 (COLO 205 colon) [nM]	TGI (COLO 205 colon) [µM]	GI50 (HS 578T breast) [µM]	TGI (HS 578T breast) [µM]	GI50 (HOP-62 NSCLC) [µM]	TGI (HOP-62 NSCLC) [µM]	GI50 (HCT-116 colon) [nM]	TGI (HCT-116 colon) [µM]	GI50 (SN12C renal) [µM]	TGI (SN12C renal) [µM]	GI50 (OVCAR-4 ovarian) [µM]	TGI (OVCAR-4 ovarian) [µM]
COc1cc(/C=N/NC(=O)c2cnn3c2NC(c2ccccc2)C3)ccc1OC1CCCC1 (stereo not given)	1.06	7.03	0.5	10.8	4.06	16.3	373	4.07	590	7.53	0.705	4.14	0.83	6.47	518	3.46	1.85	9.61	2.01	7.75
C[C@@]1(F)[C@H](O)[C@@H](CO)O[C@H]1n1ccc(=O)[nH]c1=O	> 100	> 100	> 100	> 100	> 100	> 100	> 100000	> 100	> 100000	> 100	> 100	> 100	> 100	> 100	> 100000	> 100	> 100	> 100	> 100	> 100
CC(C)Cc1cnc(CC(C)C)c(=O)[nH]1		> 100		> 100		> 100		> 100		> 100		> 100		> 100		> 100		> 100		> 100
COc1ccc(-c2ccc(OC)c(OC)c2OC)cc1	2.83	19.3	0.766	> 100	5.1	> 100	1770	> 100	1740	6.83	1.82	> 23.1	2.87	> 100	1130	32.6	6.88	> 100	5.42	> 100
COc1ccc(-n2c(=S)sc3c(Cl)nc(C)nc32)c(OC)c1	1.84	3.25	1.96	5.43	4.66	18.7	3670	15.6	3830	13.3	2.66	7.71	2.57	7.68	1830	3.71	2.85	9.14	4.73	15.6
O=C1c2cccc3cccc(c23)C(=O)N1CCCCCN1CCN(CCN=c2cc3n(-c4ccc(Cl)cc4)c4ccccc4nc-3cc2Nc2ccc(Cl)cc2)CC1	38.3	> 50	9.28	37.5	25	> 50	8240	38.4	2380	> 50	36.8	> 50	8.63	23.5	7790	17.5	10.4	26.4	6.22	17.3
CCCCCCCC(=O)OCC/C=C/C1OC1C1OC(=O)/C=C\C=C\C(=O)N(C(C)=O)C(=O)/C=C(/C)CCC2OC2C1OC(=O)NC(C)=O (stereo not given)	4.45	16.2	5.13	18.4	6.91	22.2	1700	11.5	3270	6.86	5.22	15.8	7.45	> 25	1800	4.97	7.29	> 25	7.37	> 25
O=S(=O)(NC1=NCCN1C(=S)SN1CCn2c1nsc2=S)c1ccc(Cl)cc1	7.9	30.9	11.9	28.2	12.3	25.6	2780	17.1	4360	14.8	14	75.2	19.5	41	5150	21.1	8.56	22.5	9.6	44.2
CC(C)C[C@@H](N)[C@@H](O)C(=O)N[C@H](C(=O)N[C@H](C(=O)N[C@@H](CC(=O)O)C(=O)O)C(C)C)C(C)C	> 20	> 20	> 20	> 20	> 20	> 20	> 20000	> 20	> 20000	> 20	> 20	> 20	> 20	> 20	> 20000	> 20	> 20	> 20	> 20	> 20
COc1ccc2c(c1)C(=O)c1c-2c(OCCCN(C)C)nc2cc(Br)ccc12	5.91	18.9	4.75	18.3	4.17	13.8	2320	13.7	13800	> 100	3.46	15.4	1.81	4.29	5160	18.5	2.01	4.51	1.96	5.17
Cn1c(I)c(C#C[Si](C)(C)C)c(=O)n(C(=O)c2ccccc2)c1=O	1.95	3.78	2.45	7.3	3.81	14	1920	5.65	1550	3.2	7.12	23.6	11.7	25.8	1740	3.44	6.26	18.8	4.59	15.1
CC1=NN(c2cccc(Cl)c2)C(=O)/C1=C\c1cn(CC(O)CN2CCCCC2)c2ccccc12 (stereo not given)	10.4	23.2	2.42	6.7	7.51	21.3	6470	21.5	1730	3.26	6.14	33.6	12.4	26.5	1740	3.35	12.3	35.3	13.3	28.1
N#Cc1nc(CCc2nc(C#N)c(N)o2)oc1N		> 10		> 10		> 10		> 10		> 10		> 10		> 10		> 10		> 10		> 10
COc1cccc2c1C(=O)c1c(O)c3c(c(O)c1C2=O)C[C@@](O)(C(C)=O)CC3OC1CC(OC2CC(N)C(O)C(C)O2)C(O)C(C)O1 (stereo not given in full)		> 100		> 100		> 100		> 59.6		> 100		> 100		> 100		> 100		> 100		> 100
COc1cc(O)ccc1C(=S)SC		> 100		> 100		> 100		> 100		> 100		98.5		> 100		> 100		9.56		> 100
O=C(Nc1n[nH]c2cc(-c3cc(F)ccc3F)ccc12)C1CC1	17.7	> 25	8.39	> 25	> 25	> 25	7430	> 19.8	13100	> 25	13.1	> 25	15.2	> 25	9780	> 25	15.7	> 25	13.2	> 25
Cn1c(COC(=O)NCCn2ccnc2)nc2c(N3CCOCC3)nc(-c3ccccc3)nc21	0.888	2.13	0.193	0.484	1.07	2.41	356	1.89	1150	2.97	1.06	3.59	1.54	3.9	136	0.351	0.727	2.06	0.692	1.97
Oc1ccc(Cl)cc1C=Nc1cnc2ccccc2c1		> 100		> 100		> 100		> 100		> 100		> 100		> 100		> 100		> 100		> 100
Cc1cccc(N2C(=O)/C(=C/C(Cl)=C/c3ccc([N+](=O)[O-])cc3)SC2=S)c1C	3.98	> 100	0.874	4.77	3.17	> 100	786	> 100	1810	5.08	2.8	> 100	2.69	9.02	1330	3.08	2.03	5.05	1.46	> 100
Cc1ccc(/C(=N/Nc2ccc([N+](=O)[O-])cc2)Sc2cc(Cl)c(C)cc2S(N)(=O)=O)cc1	1.75	4.1	3.64	> 49.6	1.61	3.38	2600	> 21.5	2980	> 23.2	2.45	> 23.5	2.35	5.34	1130	2.34	1.69	3.95	1.28	3.75
